Common to all, as to experiment: NCI tumour cell line growth inhibition, 48 h
The test system of experiment [1] is DLD-1.
Experiment [2] concerns DMS-114.
Experiment [3] has as its system HOP-18.
Experiment [4] has as its system KM-20L2.
Experiment [5] concerns LXFL 529.
Experiment [6] deals with M19-MEL.
The test system of experiment [7] is SNB-78.
The subject of experiment [8] is XF498.
The test system of experiment [9] is RXF 631.

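The compound was tested at five concentrations on cells cultured in 96-well plates, with a 48-hour exposure period. Abbreviation: GI50, concentration required for 50% inhibition of growth.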 Activity calls are given as the source filed them. No stated cut-off is given here; in the data, active = GI50 up to about 1.1 µM and inactive = higher. Non-standard residues stand in square brackets, D forms with d. Residues, ends and D or L forms follow the SMILES beside them. *: point of attachment. NMeF = CN[CH](Cc1ccccc1)C(=O)O; NMeV = CN[CH](C(=O)O)C(C)C; Boc = CC(C)(C)OC(=O)* Where only a bound is given, the exact number is not on record here.

Consider `COC(=O)C1CCc2c(OC)ccc(OC)c2C1=O` (configuration not stated), for which the GI50 in [1], in [2], in experiment [3], in [4], in experiment [5] and in experiment [6] was > 100 µM (inactive) throughout. For the same compound, in experiment [7], the GI50 is > 100 µM (inactive).

Turning to `COc1cc2c3c(c1OC)C1(C=CC(=O)C=C1)CC3N(C(=O)OC(C)(C)C(Cl)(Cl)Cl)CC2` (configuration not stated), the GI50 is 8.45 µM (inactive) in [1]; 7.55 µM (inactive) in experiment [2]; 22.8 µM (inactive) in experiment [3]; 11.4 µM (inactive) in experiment [4]; 8.85 µM (inactive) in experiment [5]; 10.8 µM (inactive) in experiment [6]. Besides, the figures for the GI50 in experiment [7] and in experiment [8] were 14.4 µM (inactive) and 8.69 µM (inactive), respectively.

On to `O=C(O)C(CS)NCc1c2ccccc2nc2ccccc12` (configuration not stated), for which the GI50 in experiment [1] is 24.4 µM (inactive); in experiment [4], 41.6 µM (inactive); in experiment [5] it was 39.7 µM (inactive); in experiment [6] it was 34.9 µM (inactive); in experiment [9] it was 22.3 µM (inactive); in [8], 15.5 µM (inactive).

In the case of `COc1ccc2ccccc2c1C1=NC(C)(C)CO1`, the GI50 in experiment [1], in experiment [3], in [4], in [5], in experiment [6] and in experiment [9] was > 100 µM (inactive) throughout. The GI50 in experiment [8] was > 100 µM (inactive).

In the case of `O=C(CC(=O)C1CCOC1=O)C(=O)Nc1cccc(Cl)c1` (configuration not stated), the GI50 in experiment [1], in experiment [2], in experiment [3], in experiment [4], in experiment [5] and in experiment [6] was > 100 µM (inactive) throughout. The GI50 in experiment [9] and in experiment [7] was > 100 µM (inactive) throughout.

With `CN1C(=O)CNS1(=O)=O`, the GI50 in experiment [1], in experiment [2], in experiment [5], in experiment [9], in experiment [7] and in [8] was > 100 µM (inactive) throughout.

Turning to `CC(C)C(NC(=O)OC(C)(C)C)C(=O)N(C)C(Cc1ccccc1)C(=O)N(C)C(C(=O)N(C)C(C(=O)O)C(C)C)C(C)C` (configuration not stated) (Boc-V[NMeF][NMeV][NMeV]-OH; configuration not given here), the GI50 in experiment [2], in experiment [4], in [5], in experiment [6] and in experiment [8] was > 100 µM (inactive) in each case.

Consider `Cc1cc(C)[n+](CCOc2ccc(/C(=C(/Cl)c3ccccc3)c3ccccc3)cc2)c(C)c1.[O-][Cl+3]([O-])([O-])[O-]`, for which the GI50 was 3.47 µM (inactive) in [1]; 1.29 µM (inactive) in [2]; 0.847 µM (active) in experiment [4]; 0.506 µM (active) in experiment [5]; 0.495 µM (active) in [6]; 2 µM (inactive) in experiment [7]. In addition, the GI50 in experiment [8] was 0.256 µM (active).

With `Cc1ccc(-c2nc3ccccc3c(=O)n2NC2OC(CO)C(O)C(O)C2O)cc1` (configuration not stated), the GI50 in experiment [2], in [3], in [4], in experiment [5], in [6] and in experiment [9] was > 100 µM (inactive) in each case. Further, the GI50 in experiment [7] and in [8] was > 100 µM (inactive) each time.

On to `COc1ccccc1NC(=O)C1=C(C)NC(C)=C(C(=O)Nc2ccccc2OC)C1c1ccccc1OC`, for which the GI50 in [1] is > 100 µM (inactive); in experiment [2] it was 85.5 µM (inactive); in experiment [3], > 100 µM (inactive); in experiment [4], > 100 µM (inactive); in [5] it was > 100 µM (inactive); in experiment [6], > 100 µM (inactive). In addition, the GI50 in experiment [9] and in [7] was > 100 µM (inactive) each time.

For the compound `COc1cc2c(oc(=O)c3cc4ccoc4c(OC)c32)c2cccc(O)c12`, the GI50 in experiment [1], in experiment [2], in [3], in experiment [4], in experiment [5] and in experiment [6] was > 100 µM (inactive) throughout. In addition, the GI50 in experiment [7] and in [8] was > 100 µM (inactive) each time.

With `CCOC(=O)c1ccc(N2C(=O)Cc3ccccc3C2=O)cc1`, the GI50 in experiment [2], in experiment [4], in experiment [5], in [6] and in experiment [7] was > 100 µM (inactive) each time.

With `CC1=NN(C(=O)c2ccc(Cl)cc2)C(=O)/C1=C/c1ccccc1O`, the GI50 in [1], in experiment [2], in [4], in experiment [5], in experiment [6] and in experiment [7] was > 100 µM (inactive) each time. The GI50 in [8] is > 100 µM (inactive).

For the compound `O=[N+]([O-])c1nc(-c2ccccn2)[nH]c1[N+](=O)[O-]`, the GI50 in experiment [1] was 70.5 µM (inactive); in experiment [2], 19 µM (inactive); in experiment [4] it was 39.6 µM (inactive); in experiment [5], 89.1 µM (inactive); in experiment [6] it was 57.7 µM (inactive); in experiment [9] it was 57.8 µM (inactive). For the same compound, the GI50 in experiment [7] and in [8] was > 100 µM (inactive) each time.

Regarding `O=C1C2=C(CCC2)Nc2cccc3ncn1c23`, the GI50 in experiment [1] was 51.9 µM (inactive); in experiment [2] it was > 100 µM (inactive); in experiment [3], 10.6 µM (inactive); in experiment [4], 41.9 µM (inactive); in [5] it was > 100 µM (inactive); in experiment [6], > 100 µM (inactive). In addition, the GI50 is > 100 µM (inactive) in [7] and 34.8 µM (inactive) in experiment [8].

In the case of `[N-]=[N+]=Nc1cc(=O)oc2ccccc12`, the GI50 was > 100 µM (inactive) in [1]; 42.2 µM (inactive) in [2]; > 100 µM (inactive) in experiment [3]; > 100 µM (inactive) in [5]; > 100 µM (inactive) in [6].

`CN(C)c1ccc(/C=C/C=C\c2cc(/C=C/C=C/c3ccc(N(C)C)cc3)[s+]c3ccccc23)cc1.[O-][Cl+3]([O-])([O-])[O-]`: the GI50 in [2] is 11.1 µM (inactive); in experiment [4], > 100 µM (inactive); in experiment [5], 8.26 µM (inactive); in experiment [6], 15.5 µM (inactive); in experiment [7], 51.4 µM (inactive).

On to `O=C(O)c1ccc(NC(=O)C2C(=O)C(=O)N(c3ccc(C(=O)O)cc3)C2=O)cc1` (configuration not stated), for which the GI50 in experiment [1], in experiment [4], in [6], in experiment [7] and in experiment [8] was > 100 µM (inactive) each time.

As to `CC(=O)C(CN(Cc1ccccc1)Cc1ccccc1)C(c1ccccc1)c1c(O)c2ccccc2oc1=O` (configuration not stated), the GI50 in experiment [1], in experiment [4], in experiment [5], in experiment [6], in experiment [9] and in experiment [7] was > 100 µM (inactive) each time. In experiment [8], the GI50 is > 100 µM (inactive).

For `CN(C)C[C@H]1CC[C@@H](CN(C)C)C1=O`, the GI50 was 3.94 µM (inactive) in experiment [1]; 8.47 µM (inactive) in [2]; 8.02 µM (inactive) in experiment [3]; 11.2 µM (inactive) in experiment [4]; 6.18 µM (inactive) in experiment [5]; 8.83 µM (inactive) in [6]. In addition, the values for the GI50 in experiment [7] and in experiment [8] were 10.3 µM (inactive) and 8.28 µM (inactive), respectively.

Consider `Nc1ccc(S(=O)(=O)Nc2cnc3c(Cl)cccc3n2)cc1` [CHLORSULFAQUINOXALINE], for which the GI50 was 93.1 µM (inactive) in [1]; 2.94 µM (inactive) in experiment [2]; 189 µM (inactive) in experiment [3]; 292 µM (inactive) in experiment [4]; 31.4 µM (inactive) in [5]; 232 µM (inactive) in experiment [6]. Besides, the GI50 in [7] was 151 µM (inactive); in experiment [8], 275 µM (inactive).

Take `[N-]=[N+]=Nc1c(Br)c(=O)[nH]c(=O)n1COCCO`: the GI50 in experiment [1], in experiment [2], in experiment [3], in experiment [5], in experiment [6] and in [9] was > 100 µM (inactive) each time. Moreover, the GI50 in [7] and in [8] was > 100 µM (inactive) in each case.

For `Cc1cc(Cl)cc2c1NC(=O)C2(O)CC(=O)c1ccco1` (configuration not stated), the GI50 in [1] was > 100 µM (inactive); in experiment [2], > 100 µM (inactive); in experiment [3], 4.33 µM (inactive); in [5] it was > 100 µM (inactive); in experiment [6] it was 15.6 µM (inactive); in experiment [9], > 100 µM (inactive). In addition, the GI50 in experiment [7] and in experiment [8] was > 100 µM (inactive) throughout.

With `O=C(Nc1ccn(CCO)c(=O)n1)c1ccccc1`, the GI50 in experiment [1], in [2], in experiment [3], in experiment [4], in experiment [5] and in [6] was > 100 µM (inactive) each time. Also, the GI50 in [9] and in experiment [7] was > 100 µM (inactive) throughout.

With `COc1ccc(C2C(Cl)C(=O)N2NC(=O)c2ccccc2O)cc1OC` (configuration not stated), the GI50 in experiment [1] was > 100 µM (inactive); in experiment [2], 41.1 µM (inactive); in experiment [5], > 10 µM (inactive); in experiment [6], > 100 µM (inactive); in experiment [7], > 100 µM (inactive); in experiment [8], 15.5 µM (inactive).

As to `COc1ccc2nc3cc(Cl)ccc3c(Sc3ccc(NC(C)=O)cc3)c2c1`, the GI50 in experiment [1] is 6.89 µM (inactive); in [2], 6.84 µM (inactive); in [3] it was > 29.9 µM (inactive); in experiment [4], > 21.3 µM (inactive); in [5], 7.31 µM (inactive); in experiment [6], 10.9 µM (inactive). For the same compound, the GI50 in [9] was 8.85 µM (inactive); in [7] it was 5.6 µM (inactive).

Source of the values: ChEMBL document CHEMBL1201862, “PubChem BioAssay data set” (2004).
